Test results taken from ChEMBL document CHEMBL1201862, “PubChem BioAssay data set” (2004).
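Assay format: 96-well plates, 48-hour exposure. Here, GI50 denotes the concentration required for 50% inhibition of growth.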 The source made the active and inactive calls. Cut-off read from the data, not from the text of the source: active = GI50 up to about 1.1 µM and inactive = higher. Starred links: 1 amine or outer side, 2 acyl side, 3 side chain; linkers in the order of their positions; H or OH if unused. Positions of bridges follow the written chain, without caps; N, C: chain ends. Non-standard residues stand in square brackets, D forms with d. Square brackets hold non-standard residues; d marks the D form. Residues, ends and D or L forms follow the SMILES beside them. Chains are numbered I, II in the order given. Peptide text beside a SMILES is read from it. * marks the point of attachment. Actinocin(1to9) = Cc1c2oc3c(C)ccc(C(=O)[*:2])c3nc-2c(C(=O)[*:1])c(N)c1=O; X26 = COC1=CC(=O)N(C(=O)[C@@H](O*)C(C)C)[C@H]1Cc1ccccc1; aThr = C[C@H](O)[C@H](N)C(=O)O; NMeL = CN[C@@H](CC(C)C)C(=O)O; NMeV = CN[C@H](C(=O)O)C(C)C; Hexanoyl = CCCCCC(=O)*; Sar = CNCC(=O)O

Experiments:
Experiment in all cases: inhibition of tumour cell growth, NCI panel, 48 h
[1] = tested on: RXF 393
[2] = tested on: A549
[3] = tested on: UACC-257
[4] = tested on: Malme-3M
[5] = tested on: A498
[6] = tested on: MOLT-4
[7] = tested on: RPMI-8226
[8] = tested on: SK-MEL-28
[9] = tested on: MDA-N
[10] = tested on: TK-10
[11] = tested on: MCF7
[12] = tested on: U-251
[13] = tested on: T47D
[14] = tested on: SF-539
[15] = tested on: UACC-62
[16] = tested on: MDA-MB-231
[17] = tested on: CAKI-1
[18] = tested on: NCI/ADR-RES
[19] = tested on: HCT-116
[20] = tested on: M14

Structure (SMILES)	GI50 [1]	GI50 [2]	GI50 [3]	GI50 [4]	GI50 [5]	GI50 [6]	GI50 [7]	GI50 [8]	GI50 [9]	GI50 [10]	GI50 [11]	GI50 [12]	GI50 [13]	GI50 [14]	GI50 [15]	GI50 [16]	GI50 [17]	GI50 [18]	GI50 [19]	GI50 [20]
CCOC(=O)NC(Nc1ccc(OC(F)(F)F)cc1)(C(F)(F)F)C(F)(F)F	> 100 µM (inactive)	> 100 µM (inactive)	> 100 µM (inactive)	> 100 µM (inactive)	> 100 µM (inactive)	> 100 µM (inactive)	> 100 µM (inactive)	> 100 µM (inactive)	> 100 µM (inactive)	> 100 µM (inactive)	> 100 µM (inactive)	> 100 µM (inactive)	> 100 µM (inactive)	> 100 µM (inactive)	> 100 µM (inactive)	> 100 µM (inactive)	> 100 µM (inactive)	> 100 µM (inactive)	> 100 µM (inactive)	> 100 µM (inactive)
CCCCCC(=O)N[C@H](C(=O)N[C@H](C(=O)N(C)[C@@H](CC(C)C)C(=O)N1CCC[C@H]1C(=O)N1CCC[C@H]1C(=O)O[C@H](C(=O)N1C(=O)C=C(OC)[C@@H]1Cc1ccccc1)C(C)C)C(C)C)C(C)C (Hexanoyl-VV[NMeL]PP-X26)	10.1 µM (inactive)	18.1 µM (inactive)	45.3 µM (inactive)	> 20.5 µM (inactive)	51.5 µM (inactive)	1.9 µM (inactive)	2.74 µM (inactive)	> 100 µM (inactive)	28.3 µM (inactive)	> 100 µM (inactive)	25.9 µM (inactive)	> 91.6 µM (inactive)	70.8 µM (inactive)	> 59.2 µM (inactive)	> 100 µM (inactive)	> 64.9 µM (inactive)	74.6 µM (inactive)	> 100 µM (inactive)	54.7 µM (inactive)	> 33.3 µM (inactive)
Cc1c2oc3c(C)ccc(C(=O)N[C@@H]4C(=O)N[C@H](C(C)C)C(=O)N5CCC[C@H]5C(=O)N(C)CC(=O)N(C)[C@@H](C(C)C)C(=O)O[C@H]4C)c3nc-2c(C(=O)N[C@@H]2C(=O)N[C@H](C(C)C)C(=O)N3CCC[C@H]3C(=O)N(C)CC(=O)N(C)[C@@H](C(C)C)C(=O)O[C@H]2C)c(N)c1=O (I: [aThr][dV]P[Sar][NMeV] / II: [aThr][dV]P[Sar][NMeV]; ester I:1-I:C, II:1-II:C; linker I:N-II:N via Actinocin(1to9))	0.00258 µM (active)	0.00206 µM (active)	0.00255 µM (active)	0.00119 µM (active)	0.00299 µM (active)	0.00048 µM (active)	0.00061 µM (active)	0.00139 µM (active)	0.000631 µM (active)	0.0149 µM (active)	0.000189 µM (active)	0.000611 µM (active)	0.000628 µM (active)	0.000899 µM (active)	0.000935 µM (active)	0.00455 µM (active)	0.00484 µM (active)	0.098 µM (active)	0.000332 µM (active)	0.00528 µM (active)
